# Measured values from US10543216B2, “Modus of administration of iron, and new formulations adapted for the said goal” (BIOFER S.P.A., priority 2013, dated 2020).
# Read-outs that look alike come from different tables or passages of the source.
# Key:
# [1] = tested on: Pig esophageal epithelium; assay: in vitro permeation in the Franz cell (model of sublingual absorption); conditions: FIG. 2
# Method: Sublingual absorption of Fe++ compounds was evaluated by means of in vitro permeation experiments using the Franz cell exemplified in FIG. 1. Pig esophageal epithelium was used as membrane. This experimental model is recognized as valid and reliable in the assessment of sublingual absorption of drugs [I. Diaz Del Consuelo, G. P. Pizzolato, F. Falsom, R. H. Guy, and Y. Jacques.: Evaluation of pig esophageal mucosa as a permeability barrier model for buccosal tissue. J. Pharm. […] Arch. […] Membrane preparation occurred by following the method described here. The esophagi were taken from the animals within one hour after sacrifice. The mucosa was separated from the muscle tissue with a lancet. To separate the epithelium, the mucosa was immersed in distilled water at 60° C. for 2 minutes and then the epithelium was removed from the underlying tissue with the aid of a spatula. The tissues thus prepared were stored at −20° C. until the time of use, when they were thawed to room temperature before being mounted on the vertical diffusion cells of the Franz type, a schematic view of which is shown in FIG. 1. The esophageal epithelium was placed on a regenerated cellulose filter (pore diameter 0.45 μm) with the luminal side facing up, and mounted between the donor and receptor compartments of the Franz cells. […] The exposed surface was 0.6 cm^2. The receptor compartment was filled with approximately 4 ml of physiological solution (0.9% NaCl w/v) and kept under constant magnetic agitation for the entire duration of the experiment. The entire system was thermostat-controlled at 37° C. Sampling of the receptor compartment was performed by drawing 200 μl of receptor solution, which were replaced immediately with an equal volume of fresh physiological solution. The samples were taken at preset time intervals, specifically at 0, 1, 2, 3, 4, 5 and 6 hours.
# 4 g of powder were suspended in 10 ml of physiological solution and left under agitation for 15 minutes, then the solution was filtered with regenerated cellulose filters (pore diameter 0.45 μm).
# 6 g of powder were suspended in 10 ml of physiological solution. The suspension was left under magnetic agitation for 25 minutes and then filtered with regenerated cellulose filters (pore diameter 0.45 μm).
# 7 g of powder were suspended in 6 ml of physiological solution. The suspension was left under magnetic agitation for 1 hour; at the end it was filtered with regenerated cellulose filters (pore diameter 0.45 μm).
# An excess of ascorbic acid (2 g) was added to the solution. The suspension was left under magnetic agitation for 30 minutes and after filtration through regenerated cellulose filters (pore diameter 0.45 μm) was used as it was.
# 4 g of powder were suspended in 10 ml of physiological solution. The suspension was left under magnetic agitation for 15 hours, at the end of which it was filtered with regenerated cellulose filters (pore diameter 0.45 μm).
# An excess of powder was suspended in 10 ml of physiological solution. The suspension was left under magnetic agitation for 15 hours, at the end of which it was filtered with regenerated cellulose filters (pore diameter 0.45 μm).
# [2] = randomized clinical study, sublingual administration of 30 mg of Fe2+ to healthy volunteers; format: in vivo, human; conditions: for Serum Fe / Transferrin saturation / Total iron / NTBI (free non transferrin bound iron): 30 mg Fe2+ sublingual (6 sachets of example 6), fasting healthy volunteers n=2, average; for Total iron / NTBI (free non transferrin bound iron): ICP-MS; for NTBI (free non transferrin bound iron): ultrafiltration
# Method: The participants were hospitalized for two days prior to administration until the next day and were under medical observation.
# The samples were then analyzed with respect to the trend of (average) concentrations of various indicators over time.
# Total iron measured in micrograms/dl (ICP-MS)
# Free iron by ultrafiltration measured in micromoles/liter (=NTBI) (ICP-MS)
# Total iron binding capacity (TIBC) measured in micrograms/dl (column separation, Vitros analyzer)
# Transferrin saturation (PTS) measured in %
# Serum iron (SI), measured in micrograms/dl, colorimetric method (Vitros analyzer)
# [3] = 100 mg of Fe2+ orally, healthy volunteers, Dresow et al., FIG. 5, cited from earlier work
substance,measurement,setting,value
ferrous ascorbate [Fe++ ascorbate],permeated divalent Fe,"[1]; 50 mg/ml solution, in the presence of ascorbic acid, pH 2.6, after 3 hours",above 150 micrograms/square centimeter
same,permeated divalent Fe,"[1]; 50 mg/ml solution, in the presence of ascorbic acid, pH 2.6, after 4 hours",approximately 200 micrograms/square centimeter
same,permeated divalent Fe,"[1]; 350 mg/ml solution, in the presence of ascorbic acid, pH 4.4, after 3 hours",below 150 micrograms/square centimeter
same,permeated divalent Fe,"[1]; 350 mg/ml solution, in the presence of ascorbic acid, pH 4.4, after 4 hours",approximately 200 micrograms/square centimeter
same,permeated divalent Fe,"[1]; 400 mg/ml solution, in the absence of ascorbic acid, pH 4.4, after 3 hours",above 100 micrograms/square centimeter
same,permeated divalent Fe,"[1]; 400 mg/ml solution, in the absence of ascorbic acid, pH 4.4, after 6 hours",approximately 150 micrograms/square centimeter
same,permeated divalent Fe,"[1]; 600 mg/ml solution, in the absence of ascorbic acid, pH 4.4, after 3 hours",above 100 micrograms/square centimeter
same,permeated divalent Fe,"[1]; 600 mg/ml solution, in the absence of ascorbic acid, pH 4.4, after 6 hours",approximately 125 micrograms/square centimeter
same,permeated divalent Fe,"[1]; 1000 mg/ml solution, in the absence of ascorbic acid, pH 4.4, after 3 hours",approximately 50 micrograms/square centimeter
same,permeated divalent Fe,"[1]; 1000 mg/ml solution, in the absence of ascorbic acid, pH 4.4, after 5 hours",approximately 100 micrograms/square centimeter
same,Serum Fe,[2]; time 0 h,0 µg/dL
same,Transferrin saturation,[2]; time 0 min (at administration),~24%
same,Serum Fe,[2]; time 0.033 h,5.5 µg/dL
same,Transferrin saturation,[2]; time 2 min,28%
same,Serum Fe,[2]; time 0.100 h,7 µg/dL
same,Transferrin saturation,[2]; time 6 min,28%
same,Serum Fe,[2]; time 0.200 h,6 µg/dL
same,Transferrin saturation,[2]; time 12 min,28.5%
same,Serum Fe,[2]; time 0.330 h,10 µg/dL
same,Transferrin saturation,[2]; time 20 min,26.5%
same,Serum Fe,[2]; time 0.500 h,24 µg/dL
same,Transferrin saturation,[2]; time 30 min,36%
same,Serum Fe,[2]; time 0.750 h,51.5 µg/dL
same,Transferrin saturation,[2]; time 45 min,40.5%
same,Serum Fe,[2]; time 1.000 h,72 µg/dL
same,Transferrin saturation,[2]; time 60 min,50%
same,Serum Fe,[2]; time 1.250 h,91 µg/dL
same,Transferrin saturation,[2]; time 75 min,51.5%
same,Serum Fe,[2]; time 1.500 h,110.5 µg/dL
same,Transferrin saturation,[2]; time 90 min,60%
same,Serum Fe,[2]; time 1.750 h,118.5 µg/dL
same,Transferrin saturation,[2]; time 105 min,49.5%
same,Serum Fe,[2]; time 2.000 h,129 µg/dL
same,Transferrin saturation,"[2]; time 120 min (2 hours), listed as Fe2+ (as ascorbate)",65.5%
same,Transferrin saturation,"[2]; time 120 min (2 hours), listed as Fe2+ Ascorbate",66.5%
same,increase in transferrin saturation (PTS),"[2]; 30 mg of Fe2+ sublingual, healthy volunteers, after 2 hours versus time of administration",42.5%
same,free iron (NTBI),"[2]; 30 mg of Fe2+ sublingual, healthy volunteers, after 2 hours, from 0",0.34 µmol/L
same,Total iron,[2]; time 0.00 h,0 µg/dL
same,Total iron,[2]; time 0.03 h,-7.4 µg/dL
same,Total iron,[2]; time 0.10 h,6.2 µg/dL
same,Total iron,[2]; time 0.20 h,-13.54 µg/dL
same,Total iron,[2]; time 0.33 h,5.95 µg/dL
same,Total iron,[2]; time 0.50 h,6.37 µg/dL
same,Total iron,[2]; time 0.75 h,41.58 µg/dL
same,Total iron,[2]; time 1.00 h,51.01 µg/dL
same,Total iron,[2]; time 1.25 h,80.17 µg/dL
same,Total iron,[2]; time 1.50 h,90.15 µg/dL
same,Total iron,[2]; time 1.75 h,95.7 µg/dL
same,Total iron,[2]; time 2.00 h,110.94 µg/dL
same,NTBI (free non transferrin bound iron),[2]; time 0 min,0.000 µmol/L
same,NTBI (free non transferrin bound iron),[2]; time 2 min,-0.306 µmol/L
same,NTBI (free non transferrin bound iron),[2]; time 6 min,-0.215 µmol/L
same,NTBI (free non transferrin bound iron),[2]; time 12 min,0.029 µmol/L
same,NTBI (free non transferrin bound iron),[2]; time 20 min,0.067 µmol/L
same,NTBI (free non transferrin bound iron),[2]; time 30 min,0.106 µmol/L
same,NTBI (free non transferrin bound iron),[2]; time 45 min,0.448 µmol/L
same,NTBI (free non transferrin bound iron),[2]; time 60 min,0.311 µmol/L
same,NTBI (free non transferrin bound iron),[2]; time 75 min,1.191 µmol/L
same,NTBI (free non transferrin bound iron),[2]; time 90 min,0.084 µmol/L
same,NTBI (free non transferrin bound iron),[2]; time 105 min,0.806 µmol/L
same,NTBI (free non transferrin bound iron),[2]; time 120 min,0.339 µmol/L
same,increase in transferrin saturation,[3]; after 2 hours,approximately 45%
same,transferrin saturation (absolute),[3]; after two hours,approximately 75%
same,Transferrin saturation,[3]; at the time of administration,approximately 30%
same,free iron (NTBI),"[3]; within two hours, from 0",6.7 µmol/L
